Results taken from publication PMC9594047, “Identification of the Allosteric Binding Site for Thiazolopyrimidine on the C-Type Lectin Langerin” (ACS Chemical Biology, 2022).
Changes are numbered by the printed parent chain. Where a SMILES comes first, the peptide text is derived from it.

Legend:
hLang M260S-S265Y = molecular target: T1, hLang M260S-S265Y (Homo sapiens, UniProt Q9UJ71, M260S/S265Y); experiment: 1H-15N HSQC NMR titration, hLang CRD double mutant; assay type: binding; details: for Kd: hLang CRD M260S-S265Y mutant
T1 construct: ranging from amino acids 193 - 328 and; His-tag (N); made in house; host or cells: E. coli BL21
T1 sequence (Q9UJ71 193-328 M260S/S265Y): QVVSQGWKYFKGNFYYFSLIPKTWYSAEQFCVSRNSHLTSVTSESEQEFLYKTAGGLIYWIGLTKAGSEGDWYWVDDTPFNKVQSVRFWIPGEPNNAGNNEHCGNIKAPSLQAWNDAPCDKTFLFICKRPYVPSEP
Protocol: (§1) Protein expression and purification hLang and mLang CRD wild type and all the mutants, ranging from amino acids 193 - 328 and 194 - 331, were cloned from a codon-optimized Langerin gene for bacterial expression (GenScript, Piscataway, NJ, USA) into a pET-28a vector (GenScript, Piscataway, NJ, USA) carrying an N-terminal His-tag and a T7 promoter. All constructs were expressed in E. coli BL21 (ThermoFisher Scientific, Waltham, MA, USA) in LB medium or in M9 medium at 37 °C. Protein expression was induced by adding 1 mM IPTG (isopropyl β-D-1-thiogalactopyranoside) at an OD600 between 0.7 - 1 and were grown overnight at 37 °C. Bacteria were harvested by centrifugation at 4000 g for 30 mins. Cells were lysed in lysis buffer (50 mM Tris, 150 mM NaCl, 10 mM MgCl2, 0.1% Tween-20, pH 8) with 1 mg/mL lysozyme (Sigma Aldrich, St. Louis, MO, USA) and 100 μg/mL DNase I (Applichem, Darmstadt, Germany) for at least 3 h at room temperature or 4 °C overnight or sonicated 1 h with amplitude 55%. Inclusion bodies were harvested by centrifugation at 15000 g […]
Inclusion bodies were washed twice with lysis buffer and ultrapure water to remove cell debris and soluble proteins. […]
(§2) NMR assignment and 15N-HSQC NMR for CSP plot and KD calculations were performed on a 700 MHz Bruker Advance III spectrometer (Bruker, Billerica, MA, USA) equipped with a PRODIGY probe. For mLang CRD backbone assignment, we performed a series of standard triple resonance experiments HNCA, HNCACB, HN(CO)CA and HN(CO)CACB as Hanske et al. described.1 Data was analyzed by using CcpNmr 2.5.1.2 In total, 88% of the residues were unambiguously assigned.
(§3) Most of the unassigned residues are prolines or residues in the mobile loops near the CBS, as reported for similar protein for example human Langerin.1 For the sample preparation, we used 300 µM 15N and 13C labeled protein, which is in 25 mM MES, 40 mM NaCl, 5 mM CaCl2, pH 6 containing 100 μM DSS, 0.05% NaN3, and 10% D2O buffer. […] 128 increments and 4 - 16 transients were recorded at 298 K, depending on the protein concentration and the machine implemented. […]

mLang S263M-Y268S = molecular target: T2, mLang S263M-Y268S (Mus musculus, UniProt Q8VBX4, S263M/Y268S); experiment: 1H-15N HSQC NMR titration, mLang CRD double mutant; assay type: binding, murine; details: for Kd: mLang CRD S263M-Y268S mutant, read-out: 15N HSQC KD Murine-S263M-Y268S
T2 construct: 194 - 331, were cloned from a codon-optimized Langerin gene; His-tag (N); made in house; host or cells: E. coli BL21
T2 sequence (Q8VBX4 194-331 S263M/Y268S): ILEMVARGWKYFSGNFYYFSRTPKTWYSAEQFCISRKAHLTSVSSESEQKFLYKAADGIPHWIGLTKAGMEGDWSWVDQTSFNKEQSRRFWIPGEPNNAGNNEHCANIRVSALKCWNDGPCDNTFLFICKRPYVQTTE
Protocol: as §1
Inclusion bodies were washed twice with lysis buffer and ultrapure water to remove cell debris and soluble proteins. Then inclusion bodies were denatured with 20 mL of denaturation buffer (6 M guanidinium hydrochloride in 100 mM Tris (pH 8)) with 0.01% β -mercaptoethanol for at least 1 h at 37 °C, shaking at 220 rpm. […]
as §2
as §3, with “implemented. NMR titration data were processed and analyzed, as previously done in Hanske et al. described (2016).1 The protein sample was added stepwise for titration of the thiazolopyrimidine derivatives or peptides until the most solubility tolerance was reached as the final concentration.” for “implemented.”

[1] = molecular target: T3, murine Langerin (mLang) CRD wild type (Mus musculus, UniProt Q8VBX4); experiment: 1H-15N HSQC NMR titration, mLang CRD wild type; assay type: binding; details: from CSP trajectories, 298 K; for Kd: pH 6, read-out: 15N HSQC KD mLang (Murine-WT); for 15N HSQC KD mLang (Murine-WT): pH 6
T3 construct: 194 - 331, were cloned from a codon-optimized Langerin gene; His-tag (N); made in house; host or cells: E. coli BL21
T3 sequence (Q8VBX4 194-331): T2 sequence (Q8VBX4 194-331 S263M/Y268S) with M70S, S75Y
Protocol: as §1
(§4) Inclusion bodies were washed twice with lysis buffer and ultrapure water to remove cell debris and soluble proteins. Then inclusion bodies were denatured with 20 mL of denaturation buffer (6 M guanidinium hydrochloride in 100 mM Tris (pH 8)) with 0.01% β -mercaptoethanol for at least 1 h at 37 °C, shaking at 220 rpm. The supernatant was slowly diluted 1:10 with CTL refolding buffer (0.4 M L-arginine in 50 mM Tris, 20 mM NaCl, 0.8 mM KCl, pH 8.3) with 1 mM reduced glutathione (GSH) and 0.1 mM oxidized glutathion e (GSSG) while stirring at 4 °C for at least 48 h after centrifugation (15,000 x g, 90 min, 4 °C). The refolded protein solution was dialyzed against 5 L TBS buffer (50 mM Tris, 150 mM NaCl, 5 mM CaCl 2) and then centrifuged to remove precipitated protein (15,000 x g, 90 min, 4 °C). The supernatant was purified by Ni -NTA agarose […]
(§5) affinity chromatography (Thermo Fisher) and the fractions of the elution were pooled and dialyzed against MES buffer (25 mM MES, 40 mM NaCl, 5 mM CaCl2, pH 6). Precipitated protein was removed by centrifugation (15,000 x g, 90 min, 4 °C) and the supernatant was used for experiments. We then concentrated protein with 5 - 6 mg/mL as the final concentration.
(§6) 1H-15N HSQC NMR measurements and backbone resonance assignment
as §2
(§7) Most of the unassigned residues are prolines or residues in the mobile loops near the CBS, as reported for similar protein for example human Langerin.1 For the sample preparation, we used 300 µM 15N and 13C labeled protein, which is in 25 mM MES, 40 mM NaCl, 5 mM CaCl2, pH 6 containing 100 μM DSS, 0.05% NaN3, and 10% D2O buffer. 1H–15N HSQC NMR titrations experiments were performed with 100 μM of Langerin CRD containing 50 μM 4,4-dimethyl-4-silapentane-1-sulfonic acid (DSS) as an internal reference, and 10% D2O. 128 increments and 4 - 16 transients were recorded at 298 K, depending on the protein concentration and the machine implemented. NMR titration data were processed and analyzed, as previously done in Hanske et al. described (2016).1 The protein sample was added stepwise for titration of the thiazolopyrimidine derivatives or peptides until the most solubility tolerance was reached as the final concentration. Step size according to expected KD varied.

[2] = molecular target: T4, human Langerin (hLang) CRD wild type (Homo sapiens, UniProt Q9UJ71); experiment: 1H-15N HSQC NMR titration, hLang CRD wild type; assay type: binding; details: for Kd / 15N HSQC KD hLang (Human-WT): hLang CRD wild type, from CSP trajectories, 298 K, pH 6; for Kd: read-out: 15N HSQC KD hLang (Human-WT)
T4 construct: ranging from amino acids 193 - 328 and; His-tag (N); made in house; host or cells: E. coli BL21
T4 sequence (Q9UJ71 193-328): as the sequence (Q9UJ71 193-328 M260S/S265Y) above, with S68M, Y73S counted along it
Protocol: as §1, §4, §5, §6, §2, §7

Kd [1] [µM]	Kd [2] [µM]	15N HSQC KD mLang (Murine-WT) [1]	15N HSQC KD hLang (Human-WT) [2]	Structure (SMILES)	also measured
1800 ± 600	130 ± 40	–	–	O=C(O)c1cnc2sccn2c1=O [Compound 1]	Kd (hLang M260S-S265Y): 340 ± 220 µM; fold decrease in affinity to hLang M260S-S265Y compared to WT (hLang M260S-S265Y; mutant vs WT): 3 fold; Kd (mLang S263M-Y268S): 480 ± 340 µM; fold increase in affinity for mLang S263M-Y268S compared to WT (mLang S263M-Y268S; mutant vs WT): 3 fold; fold higher affinity for hLang compared to mLang ([2]; hLang vs mLang wild type): more than 10 fold
1140 ± 60	110 ± 40	–	–	O=C(NCCc1cn2c(n1)SCC2)c1cnc2sccn2c1=O [Compound 3]	–
610 ± 110	–	micromolar affinity	no detectable binding and nb	Cc1csc2ncc(C(=O)O)c(=O)n12 [Compound 5]	–
400 ± 140	900 ± 300	–	–	Cc1sc2ncc(C(=O)O)c(=O)n2c1C [Compound 4]	–
230 ± 60	–	micromolar affinity	no detectable binding and nb	COc1cc2c(cc1OC)CC(NC(=O)c1cnc3sccn3c1=O)C2 [Compound 6]	–
280 ± 160	–	micromolar affinity	no detectable binding and nb	O=C(NCc1ccc2c(c1)OCO2)c1c(O)nc2sccn2c1=O [Compound 7]	–

Structure (SMILES)	Kd [1] [µM]	Kd [2] [µM]	15N HSQC KD mLang (Murine-WT) [1]	15N HSQC KD hLang (Human-WT) [2]	also measured
C[C@H](N)C(=O)N[C@@H](Cc1c[nH]c2ccccc12)C(=O)N[C@@H](CO)C(=O)O [AWS] (H-Ala-Trp-Ser-OH)	1600 ± 300	2400 ± 940	–	–	–
COc1ccccc1CNC(=O)c1cnc2sccn2c1=O [Compound 2]	160 ± 60	–	micromolar affinity	not detectable and no detectable binding and nb	Kd (hLang M260S-S265Y): 450 ± 280 µM; Kd (mLang S263M-Y268S): 1740 ± 160 µM; fold decrease in binding affinity to mLang S263M-Y268S compared to WT (mLang S263M-Y268S; mutant vs WT): 10 fold
N[C@@H](CO)C(=O)N[C@@H](CO)C(=O)N[C@@H](Cc1c[nH]c2ccccc12)C(=O)N[C@@H](CO)C(=O)O [SSWS] (H-SSWS-OH)	460 ± 30	–	–	–	–
C[C@H](NC(=O)[C@@H](N)CO)C(=O)N[C@@H](Cc1c[nH]c2ccccc12)C(=O)N[C@@H](CO)C(=O)O [SAWS] (H-SAWS-OH)	670 ± 230	820 ± 130	high-micromolar affinity	high-micromolar affinity	–
